In patent US11739098B2 (BRISTOL-MYERS SQUIBB COMPANY, priority 2017, dated 2023):

Tests used:
Format in all cases: cell-based
human TLR8 = target: T1, human TLR8 (Homo sapiens, UniProt Q9NR97); experiment: TLR8 inhibition reporter assay (HEK-Blue cells, SEAP reporter, R848 stimulation); settings: HEK-Blue cells overexpressing human TLR8, SEAP reporter, R848 15.9 μM
T1 construct: host or cells: HEK-Blue cells (HEK293-derived reporter line)
T1 sequence (Q9NR97 27-1041): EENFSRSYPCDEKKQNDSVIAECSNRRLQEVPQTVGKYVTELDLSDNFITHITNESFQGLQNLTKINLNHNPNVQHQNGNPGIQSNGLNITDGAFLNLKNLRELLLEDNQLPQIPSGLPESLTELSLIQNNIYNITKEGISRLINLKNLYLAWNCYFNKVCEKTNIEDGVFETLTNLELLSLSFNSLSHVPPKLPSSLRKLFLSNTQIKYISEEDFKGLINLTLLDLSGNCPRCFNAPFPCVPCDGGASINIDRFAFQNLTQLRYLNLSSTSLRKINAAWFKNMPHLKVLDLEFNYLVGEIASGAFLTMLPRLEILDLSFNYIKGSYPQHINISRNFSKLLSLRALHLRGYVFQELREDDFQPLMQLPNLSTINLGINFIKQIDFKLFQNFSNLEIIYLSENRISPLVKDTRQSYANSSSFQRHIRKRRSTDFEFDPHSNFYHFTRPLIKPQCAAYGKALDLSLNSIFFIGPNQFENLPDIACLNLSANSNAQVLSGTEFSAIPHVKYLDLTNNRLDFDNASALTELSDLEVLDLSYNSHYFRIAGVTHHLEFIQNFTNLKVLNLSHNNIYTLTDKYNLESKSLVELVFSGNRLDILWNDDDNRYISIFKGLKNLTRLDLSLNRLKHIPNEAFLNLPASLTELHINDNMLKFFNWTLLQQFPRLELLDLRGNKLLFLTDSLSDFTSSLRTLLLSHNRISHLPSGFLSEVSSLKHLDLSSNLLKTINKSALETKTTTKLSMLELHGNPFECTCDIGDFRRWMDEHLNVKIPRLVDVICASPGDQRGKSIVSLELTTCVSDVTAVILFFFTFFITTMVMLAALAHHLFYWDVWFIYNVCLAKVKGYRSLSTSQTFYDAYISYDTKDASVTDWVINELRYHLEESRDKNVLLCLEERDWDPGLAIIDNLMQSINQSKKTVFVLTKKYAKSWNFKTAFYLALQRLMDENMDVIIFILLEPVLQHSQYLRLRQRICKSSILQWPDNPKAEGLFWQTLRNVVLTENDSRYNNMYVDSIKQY
Outline: (§1)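 After 22 h at 37 °C, SEAP secretion was measured from human TLR7-, TLR8- or TLR9-expressing HEK-Blue reporter cells given compound (0.05 nM–50 μM) 30 min before agonist: 7.5 μM gardiquimod, 15.9 μM R848 or 5 nM ODN2006 respectively. Percent inhibition referenced to agonist-plus-DMSO and known-inhibitor wells.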

human TLR9 = target: T2, human TLR9 (Homo sapiens, UniProt Q9NR96); experiment: TLR9 inhibition reporter assay (HEK-Blue cells, SEAP reporter, ODN2006 stimulation); settings: HEK-Blue cells overexpressing human TLR9, SEAP reporter, ODN2006 5 nM
T2 construct: host or cells: HEK-Blue cells (HEK293-derived reporter line)
T2 sequence (Q9NR96 26-1032): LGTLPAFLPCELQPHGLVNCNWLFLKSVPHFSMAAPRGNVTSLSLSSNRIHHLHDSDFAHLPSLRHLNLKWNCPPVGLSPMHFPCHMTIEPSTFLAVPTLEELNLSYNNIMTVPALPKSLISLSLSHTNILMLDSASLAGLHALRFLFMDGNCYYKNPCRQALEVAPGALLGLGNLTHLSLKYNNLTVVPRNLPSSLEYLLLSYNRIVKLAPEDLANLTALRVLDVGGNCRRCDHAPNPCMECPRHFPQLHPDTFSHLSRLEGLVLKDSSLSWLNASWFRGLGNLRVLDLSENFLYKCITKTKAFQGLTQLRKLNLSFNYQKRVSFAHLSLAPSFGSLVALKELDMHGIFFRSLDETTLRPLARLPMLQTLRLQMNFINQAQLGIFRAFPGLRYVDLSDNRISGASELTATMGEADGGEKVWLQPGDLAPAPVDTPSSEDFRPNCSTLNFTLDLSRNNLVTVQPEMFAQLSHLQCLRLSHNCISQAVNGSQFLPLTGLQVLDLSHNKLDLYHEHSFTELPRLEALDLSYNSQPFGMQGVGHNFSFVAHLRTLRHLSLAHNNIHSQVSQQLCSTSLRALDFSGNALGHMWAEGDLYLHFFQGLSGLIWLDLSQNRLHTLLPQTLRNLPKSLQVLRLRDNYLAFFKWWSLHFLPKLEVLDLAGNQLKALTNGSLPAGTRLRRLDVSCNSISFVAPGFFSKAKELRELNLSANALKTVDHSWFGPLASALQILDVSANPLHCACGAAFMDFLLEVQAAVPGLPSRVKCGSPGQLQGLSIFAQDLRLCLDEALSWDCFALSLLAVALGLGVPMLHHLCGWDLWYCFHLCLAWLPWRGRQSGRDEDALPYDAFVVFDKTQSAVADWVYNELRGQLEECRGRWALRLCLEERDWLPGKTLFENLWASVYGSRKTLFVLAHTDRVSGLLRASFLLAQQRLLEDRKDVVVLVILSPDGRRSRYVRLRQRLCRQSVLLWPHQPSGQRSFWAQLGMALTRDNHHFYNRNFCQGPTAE
Outline: as §1

human TLR7 = target: T3, human TLR7 (Homo sapiens, UniProt Q9NYK1); experiment: TLR7 inhibition reporter assay (HEK-Blue cells, SEAP reporter, gardiquimod stimulation); settings: HEK-Blue cells overexpressing human TLR7, SEAP reporter, gardiquimod 7.5 μM
T3 construct: host or cells: HEK-Blue cells (HEK293-derived reporter line)
T3 sequence (Q9NYK1 27-1049): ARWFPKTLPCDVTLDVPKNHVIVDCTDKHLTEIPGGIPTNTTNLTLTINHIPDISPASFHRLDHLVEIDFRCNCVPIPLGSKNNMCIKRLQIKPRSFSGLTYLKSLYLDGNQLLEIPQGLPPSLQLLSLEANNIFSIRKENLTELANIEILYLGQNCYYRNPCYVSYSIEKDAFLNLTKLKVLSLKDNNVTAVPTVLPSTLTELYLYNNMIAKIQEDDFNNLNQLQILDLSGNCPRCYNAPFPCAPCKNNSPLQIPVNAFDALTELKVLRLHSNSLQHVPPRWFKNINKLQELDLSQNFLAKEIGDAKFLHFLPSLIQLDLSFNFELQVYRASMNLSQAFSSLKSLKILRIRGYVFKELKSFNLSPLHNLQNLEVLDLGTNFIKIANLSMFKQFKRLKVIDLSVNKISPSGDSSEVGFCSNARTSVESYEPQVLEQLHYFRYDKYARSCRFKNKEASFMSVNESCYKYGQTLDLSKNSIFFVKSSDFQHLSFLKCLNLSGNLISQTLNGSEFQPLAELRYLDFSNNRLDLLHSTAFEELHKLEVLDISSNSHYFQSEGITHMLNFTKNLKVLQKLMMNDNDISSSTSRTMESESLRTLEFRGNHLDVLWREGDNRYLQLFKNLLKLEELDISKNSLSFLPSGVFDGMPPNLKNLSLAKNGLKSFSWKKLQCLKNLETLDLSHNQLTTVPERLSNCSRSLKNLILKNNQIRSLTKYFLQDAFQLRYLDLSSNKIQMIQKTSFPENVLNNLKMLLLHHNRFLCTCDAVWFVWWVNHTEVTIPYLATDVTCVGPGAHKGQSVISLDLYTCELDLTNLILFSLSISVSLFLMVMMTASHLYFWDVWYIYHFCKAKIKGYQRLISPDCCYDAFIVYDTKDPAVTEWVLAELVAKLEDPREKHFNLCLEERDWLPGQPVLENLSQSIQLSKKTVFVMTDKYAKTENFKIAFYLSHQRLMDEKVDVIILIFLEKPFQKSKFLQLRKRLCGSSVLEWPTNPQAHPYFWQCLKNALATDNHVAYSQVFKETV
Outline: as §1

IC50 (human TLR8) | IC50 (human TLR9) | IC50 (human TLR7) | Structure (SMILES)
< 0.1 µM | 0.1 to 1 µM | < 0.1 µM | CC(C)c1c(-c2ccnc3[nH]ncc23)[nH]c2ccc(C3CCN(C(=O)CCN(C)C)CC3)cc12 [Example 643, 3-(dimethylamino)-1-(4-(3-isopropyl-2-(1H-pyrazolo[3,4-b]pyridin-4-yl)-1H-indol-5-yl)piperidin-1-yl)propan-1-one]
0.1 to 1 µM | 0.1 to 1 µM | 0.1 to 1 µM | Cc1cc(-c2[nH]c3ccc(C4CCNCC4)cc3c2C(C)C)cc2[nH]c(=O)oc12 [Example 91, 5-(3-isopropyl-5-(piperidin-4-yl)-1H-indol-2-yl)-7-methylbenzo[d]oxazol-2(3H)-one]
< 0.1 µM | 1 to 50 µM | < 0.1 µM | CCCN1CCC(c2ccc3[nH]c(-c4cc(OC)c5ncnn5n4)c(C(C)C)c3c2)CC1 [Example 952, 6-(3-isopropyl-5-(1-propylpiperidin-4-yl)-1H-indol-2-yl)-8-methoxy-[1,2,4]triazolo[1,5-b]pyridazine]
< 0.1 µM | 1 to 50 µM | < 0.1 µM | Cc1cc(-c2[nH]c3ccc(C4CCN(CC(=O)N(C)C)CC4)cc3c2C(C)C)c(C)n2nnnc12 [Example 310, 2-(4-(2-(5,8-dimethyltetrazolo[1,5-a]pyridin-6-yl)-3-isopropyl-1H-indol-5-yl)piperidin-1-yl)-N,N-dimethylacetamide]
0.1 to 1 µM | > 50 µM | 0.1 to 1 µM | CC(C)c1c(-c2ccnc3[nH]ncc23)[nH]c2ccc(C3CCN(Cc4cc(F)cnc4Cl)CC3)cc12 [Example 913, 4-(5-(1-((2-chloro-5-fluoropyridin-3-yl)methyl)piperidin-4-yl)-3-isopropyl-1H-indol-2-yl)-1H-pyrazolo[3,4-b]pyridine]
0.1 to 1 µM | 0.1 to 1 µM | 0.1 to 1 µM | CCc1c(-c2cnc3cn[nH]c3c2)[nH]c2ccc(C3CCNCC3)cc12 [Example 62, 6-(3-ethyl-5-(piperidin-4-yl)-1H-indol-2-yl)-1H-pyrazolo[4,3-b]pyridine]
0.1 to 1 µM | 0.1 to 1 µM | < 0.1 µM | Cc1cn2cc(-c3[nH]c4ccc(C5CCN(C(=O)CN(C)C)CC5)cc4c3C(C)C)cc(C(F)(F)F)c2n1 [Example 511, 2-(dimethylamino)-1-(4-(3-isopropyl-2-(2-methyl-8-(trifluoromethyl)imidazo[1,2-a]pyridin-6-yl)-1H-indol-5-yl)piperidin-1-yl)ethan-1-one]
0.1 to 1 µM | 1 to 50 µM | < 0.1 µM | CC(C)c1c(-c2ccc3nccnc3c2)[nH]c2ccc(C3CCNCC3)cc12 [Example 165, 6-(3-isopropyl-5-(piperidin-4-yl)-1H-indol-2-yl)quinoxaline]
0.1 to 1 µM | 1 to 50 µM | 0.1 to 1 µM | CC(C)c1c(-c2ccc3nc(N)cn3c2)[nH]c2ccc(C3CCNCC3)cc12 [Example 116, 6-(3-isopropyl-5-(piperidin-4-yl)-1H-indol-2-yl)imidazo[1,2-a]pyridin-2-amine]
< 0.1 µM | 1 to 50 µM | < 0.1 µM | Cc1cc(-c2[nH]c3ccc(C4CCN(C(=O)CN5CCC(F)CC5)CC4)cc3c2C(C)C)cn2nnnc12 [Example 474, 2-(4-fluoropiperidin-1-yl)-1-(4-(3-isopropyl-2-(8-methyltetrazolo[1,5-a]pyridin-6-yl)-1H-indol-5-yl)piperidin-1-yl) ethan-1-one]
< 0.1 µM | 1 to 50 µM | < 0.1 µM | Cc1cc(-c2[nH]c3ccc(C4CCN(C5COC5)CC4)cc3c2C(C)C)cn2nnnc12 [Example 741, 6-(3-isopropyl-5-(1-(oxetan-3-yl)piperidin-4-yl)-1H-indol-2-yl)-8-methyltetrazolo[1,5-a]pyridine]
< 0.1 µM | 0.1 to 1 µM | < 0.1 µM | Cc1cc(-c2[nH]c3ccc(C4CCNCC4)cc3c2C(C)C)cn2nnnc12 [Example 75, 6-(3-isopropyl-5-(piperidin-4-yl)-1H-indol-2-yl)-8-methyltetrazolo[1,5-a]pyridine]
0.1 to 1 µM | 0.1 to 1 µM | 0.1 to 1 µM | CC(C)c1c(-c2cnc3nccn3c2)[nH]c2ccc(C3CCNCC3)cc12 [Example 200, 6-(3-isopropyl-5-(piperidin-4-yl)-1H-indol-2-yl)imidazo[1,2-a]pyrimidine]
1 to 50 µM | 1 to 50 µM | 0.1 to 1 µM | Cc1nc2cc(-c3[nH]c4ccc(C5CCN(C(=O)CN(C)C)CC5)cc4c3C(C)C)cc(C)c2o1 [Example 491, 2-(dimethylamino)-1-(4-(2-(2,7-dimethylbenzo[d]oxazol-5-yl)-3-isopropyl-1H-indol-5-yl)piperidin-1-yl)ethan-1-one]
> 3.13 µM | 1 to 50 µM | 1 to 50 µM | CNC(=O)CN1CCC(c2ccc3[nH]c(-c4cnc5nn(C)cc5c4)c(C(C)C)c3c2)CC1 [Example 368, 2-(4-(3-isopropyl-2-(2-methyl-2H-pyrazolo[3,4-b]pyridin-5-yl)-1H-indol-5-yl)piperidin-1-yl)-N-methylacetamide]
